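Step 1: Grow cells in 96-well plates. Step 2: Expose to compound for 48 hours at 5 concentrations. Step 3: Interpolate endpoints linearly; if unreached, use highest concentration. TGI marks complete inhibition of growth.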
Tests used:
Test in all cases: NCI-60 cell line screen, 48 h
ACHN renal = tested on: ACHN renal
KM12 colon = tested on: KM12 colon
HOP-92 NSCLC = tested on: HOP-92 NSCLC
A498 renal = tested on: A498 renal
SF-268 CNS = tested on: SF-268 CNS
MOLT-4 leukemia = tested on: MOLT-4 leukemia
SW-620 colon = tested on: SW-620 colon
OVCAR-4 ovarian = tested on: OVCAR-4 ovarian
A549 NSCLC = tested on: A549 NSCLC
HCT-15 colon = tested on: HCT-15 colon
U251 CNS = tested on: U251 CNS
COLO 205 colon = tested on: COLO 205 colon
SK-MEL-28 melanoma = tested on: SK-MEL-28 melanoma
MCF7 breast = tested on: MCF7 breast
UO-31 renal = tested on: UO-31 renal
HT29 colon = tested on: HT29 colon
SK-MEL-2 melanoma = tested on: SK-MEL-2 melanoma
CAKI-1 renal = tested on: CAKI-1 renal
NCI-H522 lung = tested on: NCI-H522 lung
HCT-116 colon = tested on: HCT-116 colon

BrC1=CN2C[n+]3cc(Br)c4ccccc4c3N=C2c2ccccc21
TGI (ACHN renal): 34.7 µM
TGI (KM12 colon): 15.9 µM
TGI (HOP-92 NSCLC): 29.6 µM
TGI (A498 renal): 70.9 µM
TGI (SF-268 CNS): 22.1 µM
TGI (MOLT-4 leukemia): 33.2 µM
TGI (SW-620 colon): > 100 µM
TGI (OVCAR-4 ovarian): 20 µM
TGI (A549 NSCLC): > 100 µM
TGI (HCT-15 colon): > 100 µM
TGI (U251 CNS): 21.9 µM
TGI (COLO 205 colon): 23.1 µM
TGI (SK-MEL-28 melanoma): 6.7 µM
TGI (MCF7 breast): 21.5 µM
TGI (UO-31 renal): > 100 µM
TGI (HT29 colon): 38.6 µM
TGI (SK-MEL-2 melanoma): 22.3 µM
TGI (CAKI-1 renal): 48.1 µM
TGI (NCI-H522 lung): 32.2 µM

COC(=O)C1=C(O)C(C(=O)OC)[C@@]2(O)[C@@H](C(=O)OC)CC[C@@H]1[C@@H]2C(=O)OC (stereo not given in full)
TGI (ACHN renal): > 100 µM
TGI (KM12 colon): 66 µM
TGI (A498 renal): 55.4 µM
TGI (SF-268 CNS): 75.5 µM
TGI (MOLT-4 leukemia): > 100 µM
TGI (HCT-15 colon): 64.2 µM
TGI (U251 CNS): 64.6 µM
TGI (SK-MEL-28 melanoma): > 100 µM
TGI (MCF7 breast): > 100 µM
TGI (UO-31 renal): > 100 µM
TGI (HT29 colon): > 100 µM
TGI (SK-MEL-2 melanoma): 49.3 µM
TGI (HCT-116 colon): > 100 µM
TGI (NCI-H522 lung): 52.4 µM

CCOC(=O)/C(=N/Nc1ccc(Cl)cc1)N1C(=S)C=C(C)NN(C)C1=S
TGI (ACHN renal): > 100 µM
TGI (KM12 colon): > 100 µM
TGI (HOP-92 NSCLC): > 100 µM
TGI (SF-268 CNS): 85 µM
TGI (MOLT-4 leukemia): > 100 µM
TGI (SW-620 colon): > 100 µM
TGI (OVCAR-4 ovarian): > 100 µM
TGI (A549 NSCLC): > 100 µM
TGI (HCT-15 colon): > 100 µM
TGI (U251 CNS): 39.5 µM
TGI (COLO 205 colon): > 100 µM
TGI (SK-MEL-28 melanoma): > 100 µM
TGI (MCF7 breast): > 100 µM
TGI (UO-31 renal): > 100 µM
TGI (HT29 colon): > 100 µM
TGI (SK-MEL-2 melanoma): > 100 µM
TGI (CAKI-1 renal): > 100 µM
TGI (HCT-116 colon): > 100 µM
TGI (NCI-H522 lung): 50.2 µM

COc1cc(C2S/C(=C/c3ccccc3)C(=O)N2c2ccccc2Cl)cc(OC)c1OC (stereo not given)
TGI (ACHN renal): > 100 µM
TGI (KM12 colon): > 100 µM
TGI (HOP-92 NSCLC): > 100 µM
TGI (A498 renal): > 100 µM
TGI (SF-268 CNS): > 100 µM
TGI (MOLT-4 leukemia): > 100 µM
TGI (OVCAR-4 ovarian): > 100 µM
TGI (A549 NSCLC): > 100 µM
TGI (HCT-15 colon): > 100 µM
TGI (U251 CNS): 55.9 µM
TGI (COLO 205 colon): > 100 µM
TGI (SK-MEL-28 melanoma): > 100 µM
TGI (MCF7 breast): > 100 µM
TGI (UO-31 renal): > 100 µM
TGI (HT29 colon): 47.5 µM
TGI (SK-MEL-2 melanoma): 39.7 µM
TGI (CAKI-1 renal): > 100 µM
TGI (HCT-116 colon): 62.6 µM
TGI (NCI-H522 lung): 39.2 µM

C/C([O-])=C(/c1nc(-c2ccc([N+](=O)[O-])o2)no1)[n+]1cc(C)ccc1C
TGI (KM12 colon): 25.4 µM
TGI (HOP-92 NSCLC): > 100 µM
TGI (A498 renal): 33.8 µM
TGI (SF-268 CNS): 62.3 µM
TGI (MOLT-4 leukemia): > 100 µM
TGI (SW-620 colon): 16.9 µM
TGI (OVCAR-4 ovarian): 63.9 µM
TGI (A549 NSCLC): 30.8 µM
TGI (HCT-15 colon): 22.3 µM
TGI (U251 CNS): 21.7 µM
TGI (COLO 205 colon): 15 µM
TGI (SK-MEL-28 melanoma): 25.6 µM
TGI (MCF7 breast): 16.2 µM
TGI (UO-31 renal): 40 µM
TGI (HT29 colon): 22.7 µM
TGI (SK-MEL-2 melanoma): 19.7 µM
TGI (CAKI-1 renal): 28.7 µM
TGI (HCT-116 colon): 18.5 µM
TGI (NCI-H522 lung): 14.4 µM

Reference: PubChem BioAssay (NCI)
